Data as given in PMC8434392, “Harnessing the Anti-Nociceptive Potential of NK2 and NK3 Ligands in the Design of New Multifunctional μ/δ-Opioid Agonist–Neurokinin Antagonist Peptidomimetics” (Molecules, 2021).

Legend:
[1] = target: hMOR; parameters: method as in PMID 15094830, PMID 32365707; settings: Figure 1B; read-out: Ki (CHO-hMOR); cited from earlier work
[2] = system: hMOR; parameters: method as in PMID 15094830, PMID 32365707; settings: Figure 1B; read-out: EC50 (CHO-hMOR); cited from earlier work
[3] = target: hNK3; parameters: method as in PMID 17728699; settings: Figure 1A; cited from earlier work
[4] = system: NK3 receptor; parameters: method as in PMID 17728699; settings: Figure 1A; cited from earlier work
[5] = system: NK3 receptor; parameters: method as in PMID 17728699; settings: Figure 1A; cited from earlier work; remark: listed apart in the source
[6] = target: T1, human recombinant MOR (Homo sapiens, UniProt P35372); experiment: Calcium mobilization assay, CHO MOR cells with Gαqi5; format: cell-based; settings: intrinsic activity: Emax of ligand / Emax of dermorphin
T1 construct: expressed in transfected cells; host or cells: CHO cells (gift from Prof. Girolamo Calo', Ferrara University)

[7] = target: T2, human recombinant KOR (Homo sapiens, UniProt P41145); experiment: Calcium mobilization assay, CHO KOR cells with Gαqi5; format: cell-based
T2 construct: expressed in transfected cells; host or cells: CHO cells (gift from Prof. Girolamo Calo', Ferrara University)

[8] = target: T3, human recombinant DOR (Homo sapiens, UniProt P41143); parameters: method as in PMID 23007594; settings: data from reported literature ref 30, cited from earlier work
T3 construct: expressed in transfected cells; host or cells: CHO cells (gift from Prof. Girolamo Calo', Ferrara University)
T3 sequence (P41143 whole entry): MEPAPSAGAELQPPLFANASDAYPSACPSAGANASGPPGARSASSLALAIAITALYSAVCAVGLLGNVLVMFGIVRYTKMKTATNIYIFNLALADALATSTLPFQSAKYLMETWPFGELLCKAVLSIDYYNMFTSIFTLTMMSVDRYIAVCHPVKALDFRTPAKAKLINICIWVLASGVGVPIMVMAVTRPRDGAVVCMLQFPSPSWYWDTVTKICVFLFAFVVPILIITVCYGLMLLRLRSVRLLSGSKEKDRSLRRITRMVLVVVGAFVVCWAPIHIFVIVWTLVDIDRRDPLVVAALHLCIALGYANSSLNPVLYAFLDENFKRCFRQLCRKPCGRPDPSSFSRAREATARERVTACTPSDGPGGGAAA

T2 sequence (P41145 whole entry): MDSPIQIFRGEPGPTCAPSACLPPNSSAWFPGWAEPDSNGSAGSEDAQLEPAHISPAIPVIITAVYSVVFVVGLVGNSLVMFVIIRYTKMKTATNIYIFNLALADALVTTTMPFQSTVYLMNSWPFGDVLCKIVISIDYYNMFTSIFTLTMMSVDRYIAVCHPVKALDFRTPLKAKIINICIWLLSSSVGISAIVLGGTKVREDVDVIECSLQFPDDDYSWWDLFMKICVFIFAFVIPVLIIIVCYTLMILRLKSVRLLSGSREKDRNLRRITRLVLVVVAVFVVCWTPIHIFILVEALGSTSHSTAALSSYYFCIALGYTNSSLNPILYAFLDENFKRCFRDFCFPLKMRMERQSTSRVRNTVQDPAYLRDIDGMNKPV
T1 sequence (P35372 whole entry): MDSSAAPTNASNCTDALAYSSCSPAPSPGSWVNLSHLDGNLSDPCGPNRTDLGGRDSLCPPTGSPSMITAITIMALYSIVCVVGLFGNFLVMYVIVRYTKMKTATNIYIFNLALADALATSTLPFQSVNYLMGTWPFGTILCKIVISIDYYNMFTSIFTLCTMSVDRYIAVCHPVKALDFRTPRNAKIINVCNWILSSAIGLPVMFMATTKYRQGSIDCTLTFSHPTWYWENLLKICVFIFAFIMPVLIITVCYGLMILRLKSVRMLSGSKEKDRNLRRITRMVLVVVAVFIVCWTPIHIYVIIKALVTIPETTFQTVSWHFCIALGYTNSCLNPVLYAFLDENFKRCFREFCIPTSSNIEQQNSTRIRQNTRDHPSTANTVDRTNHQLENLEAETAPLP

For `Cc1cc(O)cc(C)c1C[C@H](N)C(=O)N[C@H](CCCNC(=N)N)C(=O)N[C@@H](Cc1ccccc1)C(=O)N[C@@H](CCCCN)C(N)=O` [Dmt-DALDA, H-Dmt-D-Arg-Phe-Lys-NH2], the Ki [1] is given as 0.23 nM and the EC50 [2] is given as 0.51 nM.
For `CC[C@H](NC(=O)c1c(O)c(-c2ccccc2)nc2ccccc12)c1ccccc1` [Talnetant], the Ki [3] is listed as 2 nM, the “pA2 (IP accumulation)” value [4] is listed as 7.7 and the “pA2 (Ca2+ mobilisation)” value [5] is listed as 8.1.
With `C[C@@H](NC(=O)[C@@H](N)Cc1ccc(O)cc1)C(=O)N[C@@H](Cc1ccccc1)C(=O)NCC(=O)N[C@@H](Cc1ccc(O)cc1)C(=O)N1CCC[C@H]1C(=O)N[C@@H](CO)C(N)=O` [dermorphin, reference compound] the “MOR α ± SEM” value [6] was 1.00, the “KOR EC50 ± SEM (nM)” value ([7]; calcium mobilization, CHO KOR Gαqi5, maximum tested concentration 10 µM, crc = concentration-response curve) was “inactive” and the “KOR α ± SEM” value ([7]; intrinsic activity: Emax of ligand / Emax of dynorphin A) was “inactive”. For the same compound, the “DOR EC50 ± SEM (nM)” value ([8]; calcium mobilization, chimeric G protein) was “Inactive ^a” and the “DOR α ± SEM” value ([8]; intrinsic activity) was “Inactive ^a”.
